Experimental data reported in US20040173696A1, “Milling microgram quantities of nanoparticulate candidate compounds” (Elan Pharma International Ltd., priority 2002, published 2004).
Read-outs that look alike come from different tables or passages of the source.

How the values were obtained:
[1] = 48-well, 0.5 g 0.8 mm media, 0.125 ml slurry, HPC-SL 4:1, 48 hours
Experimental: (§1) Naproxen and hydroxypropyllcellulose (HPC-SL) as a surface stabilizer were combined at a drug:stabilizer ratio of 4:1. Samples of the composition and grinding media, as shown in the table below, were added to the wells of a 48-well microplate. One well was used for each condition. The microplate was then agitated at the maximum sustainable speed using an orbital shaking platform driven by a standard laboratory magnetic stirring device. After 48 hours, the average particle size of naproxen was estimated by light microscopy.

[2] = 24-well, 48 hours
Experimental: In this example 0.8 mm media was used.
as §1, with “24-well microplate” for “48-well microplate.”, “hours” for “hours,”

Average Particle Size ([1]; 0.125 mg drug): <1 μm | Average Particle Size ([1]; 0.625 mg drug): <1 μm | Average Particle Size ([1]; 1.25 mg drug): <0.5 μm | Average Particle Size ([1]; 2.5 mg drug): <0.5 μm | Average Particle Size of Naproxen ([2]; 0.25 mg drug, 1 g 0.8 mm media, 0.25 ml slurry, HPC-SL 4:1): <1 μm, | Average Particle Size of Naproxen ([2]; 0.5 mg drug, 2 g 0.8 mm media, 0.5 ml slurry, HPC-SL 4:1): <1 μm, | Average Particle Size of Naproxen ([2]; 1.25 mg drug, 1 g 0.8 mm media, 0.25 ml slurry, HPC-SL 4:1): <1 μm, | Average Particle Size of Naproxen ([2]; 2.5 mg drug, 1 g 0.8 mm media, 0.25 ml slurry, HPC-SL 4:1): <0.5 μm | Average Particle Size of Naproxen ([2]; 5 mg drug, 1 g 0.8 mm media, 0.25 ml slurry, HPC-SL 4:1): <0.5 μm | Average Particle Size of Naproxen ([2]; 10 mg drug, 2 g 0.8 mm media, 0.5 ml slurry, HPC-SL drug:stabilizer 4:1): <0.5 μm
SMILES: COc1ccc2cc([C@H](C)C(=O)O)ccc2c1 [Naproxen]
